Legend:
[1] = system: human lung cancer cell line NCI-H23; experiment: NCI-H23 growth inhibition assay; format: cell-based; conditions: NCI-H23, 72 h, 3 days incubation, CellTiter-Glo
Experimental: (§1) In this assay, the growth inhibitory activities of Compound D-6 (Example 26), E-2, G-4, H-2, 1-2, J-1, K-2, L-6, M-3, and N-1 in a human lung cancer cell line NCI-H23 were measured. NCI-H23 cells were maintained in RPM-1640 (Wako Pure Chemical Industries, Ltd., 187-02021) medium containing 10% fetal bovine serum (FBS: Sigma, 172012), and penicillin and streptomycin (Wako Pure Chemical Industries, Ltd., 168-23191) in a 5% CO2 incubator (37° C.). To each well of a 96 well plate (Becton, Dickinson and Company, 353219), 75 μL of NCI-H23 cell suspension adjusted to a concentration of 4×10^4 cells/mL with the culture medium was added, and the cells were incubated overnight in a 5% CO2 incubator (37° C.). On the next day, 25 μL of each compound in three-fold dilution series suspended in the culture medium was added to each well, and the resultant was incubated for 3 days in a 5% CO2 incubator (37° C.). Then, cell viability was determined by CellTiter-Glo® Luminescent Cell Viability Assay (Promega) with EnVision 2103 Multilabel Reader (Perkin-Elmer, Wellesley, MA). Value of the wells containing cells without adding the test substance was defined as 100% and the value of the wells containing no cells was defined as 0%. The concentration of the test substance necessary for inhibiting the cell growth by 50% (i.e., an IC50 value) was calculated, and summarized in Table 14.

[2] = system: human breast cancer cell line HCC1954; experiment: HCC1954 growth inhibition assay (Test Example 24); format: cell-based; conditions: HCC1954, 72 h, 3 days incubation, CellTiter-Glo
Experimental: In this assay, the growth inhibitory activities of Compound D-6 (Example 26), E-2, G-4, H-2, I-2, J-1, K-2, L-6, M-3, and N-1 in a human breast cancer cell line HCCl954 were measured. HCC1954 cells were maintained in RPMI-1640 medium modified to contain 2 mM L-glutamine, 10 mM HEPES, 1 mM sodium pyruvate, 4500 mg/L glucose, and 1500 mg/L sodium bicarbonate (ATCC 30-2001) containing 10% fetal bovine serum (FBS: Sigma, 172012), and penicillin and streptomycin (Wako Pure Chemical Industries, Ltd., 168-23191) in a 5% CO2 incubator (37° C.). To each well of a 96 well plate (Becton, Dickinson and Company, 353219), 75 μL of HCC1954 cell suspension adjusted to a concentration of 4×10^4 cells/mL with the culture medium was added, and the cells were incubated overnight in a 5% CO2 incubator (37° C.). On the next day, 25 μL of each compound in three-fold dilution series suspended in the culture medium was added to each well, and the resultant was incubated for 3 days in a 5% CO2 incubator (37° C.). Then, cell viability was determined by CellTiter-Glo® Luminescent Cell Viability Assay (Promega) with EnVision 2103 Multilabel Reader (Perkin-Elmer, Wellesley, MA). Value of the wells containing cells without adding the test substance was defined as 100% and the value of the wells containing no cells was defined as 0%. The concentration of the test substance necessary for inhibiting the cell growth by 50% (i.e., an IC50 value) was calculated, and summarized in Table 14.

MES-SA cells = experiment: MES-SA growth inhibition assay; format: cell-based; conditions: Homo sapiens, 72 h, 3 days incubation, CellTiter-Glo, read-out: Cell growth inhibition IC50 (nM) MES-SA
Experimental: as §1, with “MES-SA” for “NCI-H23”

[3] = in comparison with Halichondrin B; cited from earlier work
[4] = in vitro and in vivo; cited from earlier work
[5] = system: HSC-2-Luc inoculated into tongue; experiment: HSC-2 orthotopic transplantation mouse model; format: in vivo, nude mice; conditions: Compound (1) 0.09 mg/kg

Structure (SMILES) | IC50 [1] [nM] | IC50 [2] [nM] | IC50 (MES-SA cells) [nM] | stability in aqueous solution [3] | activity relative to Halichondrin B [4] | ILS (%) ([5]; single agent, Q7Dx3: cetuximab 5 mg/kg, cisplatin 5 mg/kg) | ILS (%) ([5]; with cetuximab 5 mg/kg, Q7Dx3: cisplatin 5 mg/kg)
C=C1C[C@@H]2CC[C@@]34CC5O[C@H]6[C@@H](O3)[C@H]3O[C@H](CC[C@@H]3O[C@H]6C5O4)CC(=O)O[C@@H]3[C@@H](C)[C@@H]4O[C@@H]5C[C@]6(C[C@@H]7O[C@]8(C[C@H](C)[C@@H]9O[C@H](CCO)[C@H](O)C[C@@H]9O8)C[C@H](C)[C@@H]7O6)O[C@@H]5C[C@@H]4O[C@H]3C[C@H]3O[C@@H](CC[C@@H]1O2)C[C@@H](C)C3=C [Compound E-2] | 0.595 | 0.0805 | 0.856 | – | – | – | –
C=C1C[C@@H]2CC[C@@]34C[C@@]5(O)O[C@H]6[C@@H](O3)[C@H]3O[C@H](CC[C@@H]3O[C@H]6[C@H]5O4)CC(=O)O[C@@H]3[C@@H](C)[C@@H]4O[C@@H]5C[C@]6(C[C@@H]7O[C@]8(C[C@H](C)[C@@H]9O[C@H]([C@@H](O)C[C@@H](O)CN)C[C@@H]9O8)C[C@H](C)[C@@H]7O6)O[C@@H]5C[C@@H]4O[C@H]3C[C@H]3O[C@@H](CC[C@@H]1O2)C[C@@H](C)C3=C [Compound L-6] | 6.81 | 0.269 | 2.79 | – | – | – | –
C=C1C[C@@H]2CC[C@@]34CC5O[C@H]6[C@@H](O3)[C@H]3O[C@H](CC[C@@H]3O[C@H]6C5O4)CC(=O)O[C@@H]3[C@@H](C)[C@@H]4O[C@@H]5C[C@]6(C[C@@H]7O[C@]8(C[C@H](C)[C@@H]9O[C@H](CCOC)[C@H](O)C[C@@H]9O8)C[C@H](C)[C@@H]7O6)O[C@@H]5C[C@@H]4O[C@H]3C[C@H]3O[C@@H](CC[C@@H]1O2)C[C@@H](C)C3=C [Compound I-2] | 0.103 | 0.00624 | 0.057 | – | – | – | –
C=C1C[C@@H]2CC[C@@]34C[C@@]5(O)O[C@H]6[C@@H](O3)[C@H]3O[C@H](CC[C@@H]3O[C@H]6[C@H]5O4)CC(=O)O[C@@H]3[C@@H](C)[C@@H]4O[C@@H]5C[C@]6(C[C@@H]7O[C@]8(C[C@H](C)[C@@H]9O[C@H]([C@@H](O)C[C@@H](O)CO)C[C@@H]9O8)C[C@H](C)[C@@H]7O6)O[C@@H]5C[C@@H]4O[C@H]3C[C@H]3O[C@@H](CC[C@@H]1O2)C[C@@H](C)C3=C [Halichondrin C] | – | – | – | unstable in aqueous solution in comparison with Halichondrin B | – | – | –
C=C1C[C@@H]2CC[C@@]34C[C@H]5O[C@H]6[C@@H](O3)[C@H]3O[C@H](CC[C@@H]3O[C@H]6[C@H]5O4)CC(=O)O[C@@H]3[C@@H](C)[C@@H]4O[C@@H]5C[C@]6(C[C@@H]7O[C@]8(C[C@H](C)[C@@H]9O[C@H](CCN)[C@H](O)C[C@@H]9O8)C[C@H](C)[C@@H]7O6)O[C@@H]5C[C@@H]4O[C@H]3C[C@H]3O[C@@H](CC[C@@H]1O2)C[C@@H](C)C3=C [Compound G-4] | 0.136 | 0.0335 | 0.326 | – | – | – | –
C=C1C[C@@H]2CC[C@@]34C[C@H]5O[C@H]6[C@@H](O3)[C@H]3O[C@H](CC[C@@H]3O[C@H]6[C@H]5O4)CC(=O)O[C@@H]3[C@@H](C)[C@@H]4O[C@@H]5C[C@]6(CC7O[C@@]8(C[C@H](C)C7O6)C[C@H](C)[C@@H]6O[C@H](CC(=O)O)[C@H](O)C[C@@H]6O8)O[C@@H]5CC4O[C@H]3C[C@H]3O[C@@H](CC[C@@H]1O2)C[C@@H](C)C3=C (stereo partly shown) [Norhalichondrin B] | – | – | – | – | much weaker than Halichondrin B | – | –
N.N.[Cl][Pt][Cl] [Cisplatin, cisplatin, reference compound] | – | – | – | – | – | 0 | 150
C=C1C[C@@H]2CC[C@@]34CC5O[C@H]6[C@@H](O3)[C@H]3O[C@H](CC[C@@H]3O[C@H]6C5O4)CC(=O)O[C@@H]3[C@@H](C)[C@@H]4O[C@@H]5C[C@]6(C[C@@H]7O[C@]8(C[C@H](C)[C@@H]9O[C@H]([C@@H](O)CCO)C[C@@H]9O8)C[C@H](C)[C@@H]7O6)O[C@@H]5C[C@@H]4O[C@H]3C[C@H]3O[C@@H](CC[C@@H]1O2)C[C@@H](C)C3=C [Compound M-3] | 0.0199 | 0.0101 | 0.0141 | – | – | – | –
C=C1C[C@@H]2CC[C@@]34CC5O[C@H]6[C@@H](O3)[C@H]3O[C@H](CC[C@@H]3O[C@H]6C5O4)CC(=O)O[C@@H]3[C@@H](C)[C@@H]4O[C@@H]5C[C@]6(C[C@@H]7O[C@]8(C[C@H](C)[C@@H]9O[C@H](CO)[C@H](O)C[C@@H]9O8)C[C@H](C)[C@@H]7O6)O[C@@H]5C[C@@H]4O[C@H]3C[C@H]3O[C@@H](CC[C@@H]1O2)C[C@@H](C)C3=C [Compound D-6] | 0.022 | 0.0104 | 0.0138 | – | – | – | –
C=C1C[C@@H]2CC[C@@]34CC5O[C@H]6[C@@H](O3)[C@H]3O[C@H](CC[C@@H]3O[C@H]6C5O4)CC(=O)O[C@@H]3[C@@H](C)[C@@H]4O[C@@H]5C[C@]6(C[C@@H]7O[C@]8(C[C@H](C)[C@@H]9O[C@H]([C@@H](O)CCN)C[C@@H]9O8)C[C@H](C)[C@@H]7O6)O[C@@H]5C[C@@H]4O[C@H]3C[C@H]3O[C@@H](CC[C@@H]1O2)C[C@@H](C)C3=C [Compound N-1] | 1.53 | 0.08 | 2.88 | – | – | – | –
C=C1C[C@@H]2CC[C@@]34CC5O[C@H]6[C@@H](O3)[C@H]3O[C@H](CC[C@@H]3O[C@H]6C5O4)CC(=O)O[C@@H]3[C@@H](C)[C@@H]4O[C@@H]5C[C@]6(C[C@@H]7O[C@]8(C[C@H](C)[C@@H]9O[C@H]([C@@H](O)C[C@@H](O)CN)C[C@@H]9O8)C[C@H](C)[C@@H]7O6)O[C@@H]5C[C@@H]4O[C@H]3C[C@H]3O[C@@H](CC[C@@H]1O2)C[C@@H](C)C3=C [Compound K-2] | 0.461 | 0.07 | 0.341 | – | – | – | –
C=C1C[C@@H]2CC[C@@]34C[C@]5(O)O[C@H]6[C@@H](O3)[C@H]3O[C@H](CC[C@@H]3O[C@H]6C5O4)CC(=O)O[C@@H]3[C@@H](C)[C@@H]4O[C@@H]5C[C@]6(C[C@@H]7O[C@]8(C[C@H](C)[C@@H]9O[C@H](CCO)[C@H](O)C[C@@H]9O8)C[C@H](C)[C@@H]7O6)O[C@@H]5C[C@@H]4O[C@H]3C[C@H]3O[C@@H](CC[C@@H]1O2)C[C@@H](C)C3=C [Compound J-1] | 0.00992 | 0.00308 | 0.0102 | – | – | – | –
